Data set [1] deals with PLK4 884-970 (Homo sapiens) (UniProt O00444). Nature of the data set: ITC. Particulars: cited from earlier work.
Data set [2] concerns STIL CCD peptide. Nature of the data set: AUC sedimentation velocity (SV), oligomeric state. The format is physicochemical. The settings on record: for sw / mw (solution mass from c(s) fit) / f/f0 / sw(20,w) / oligomeric state (average number of monomers in the oligomer): AUC-SV, 60 krpm; for sw / mw (solution mass from c(s) fit) / oligomeric state (average number of monomers in the oligomer): 20 °C; for sw / mw (solution mass from c(s) fit) / f/f0 / sw(20,w): pH 6.8; for mw (solution mass from c(s) fit) / oligomeric state (average number of monomers in the oligomer): 95% confidence level; for oligomeric state (average number of monomers in the oligomer): continuous c(s), 25 mM sodium phosphate pH 6.8, NaCl. The procedure:
Previously, we and others have shown by size-exclusion chromatography and multi-angle light scattering that the oligomerization of a STIL CCD peptide is concentration dependent. However, these studies were qualitative and the interaction was not quantified. To quantify the oligomerisation of the STIL CCD peptide, analytical ultracentrifugation (AUC) sedimentation velocity (SV) and sedimentation equilibrium (SE) experiments were performed (Figure 2A, Table 1 and Figures S4–S9, S18 and S19). AUC-SV experiments were conducted at several concentrations to explore how the oligomeric state changed with concentration in the low-to-high µM concentration range, and also to estimate the dissociation constants of the oligomerization of the STIL CCD peptide.
(§1) Analytical ultracentrifugation (AUC) experiments were carried out using a Beckman Optima XL-A or XL-I analytical ultracentrifuge. Measurements were performed at 20 °C unless otherwise stated, using an An-50 or An-60 rotor, in Sodium Phosphate Buffer pH 6.8 (25 mM Na2PO4 with addition of 137 mM NaCl, pH measured using Jenway (TM) 3510 benchtop and adjusted using 1M HCl and 1M NaOH solutions). The partial specific volume ( υ¯ ) for each peptide were calculated in Sedfit using values from Cohn and Edsall. The buffer densities and viscosities were calculated using UltraScan III [54].
Sedimentation velocity (SV) experiments were performed in EPON 2-channel centerpieces with quartz windows or aluminium centrepieces with sapphire windows. The samples were centrifuged at 50 or 60 krpm where stated, with absorbance measurements taken from a radial range of 5.7–7.3 cm. 120 scans were taken at 5 min intervals, the data were fit in Sedfit to a continuous c(s) distribution model at a 95% confidence level. The frictional ration and baseline were floated, and Time-invariant and Radial-invariant noise were fit. Initially data were fit between a range of Svedberg ratio of 0–15, but this was reduced to 0–3 for all data as there were no larger species. The residuals for each individual fit are shown in Figures S14–S17 as a bitmap in which the color indicates the difference between the model fit and the raw data over the radial range to which the data were fitted. The scans are in vertical chronological order.

Data set [3] deals with STIL CCD peptide. Nature of the data set: AUC sedimentation equilibrium (SE), oligomeric state. The format is physicochemical. Particulars: absorbance 225 nm, 95% confidence limits. The procedure: (§2) To quantify the dissociation constants of the possible monomer-dimer and dimer-tetramer transitions, we used fluorescence-based binding measurements. Using micro-scale thermophoresis, fluorescence measurements were taken at increasing concentrations of WT CCD peptide in a fixed background of 5 µM fluorophore-labelled peptide. […] Fitting the fluorescence data to the Hill equation provided a dissociation constant of 8 ± 2 µM and a cooperativity of 1.2 ± 0.3 (Figure 2B, Table S4). We interpret this as being for the monomer-dimer transition, and that the fluorescence measurements are insensitive to the higher-order oligomerization. […] To probe the possible dimer-tetramer transition, we turned to AUC-SE measurements with starting concentrations of 5, 10, and 20 µM of STIL WT CCD peptide (Figures S18 and S19). The equilibrated data were fitted first to a model for a single ideal species, which provided a species 2.9 × monomer mass (Table 1). […] It should be noted that the dimerization constant of the WT peptide was measured in the presence of 5% DMSO and using a fluorophore-labeled peptide, while the tetramerization constant was measured without DMSO and unlabeled peptides. The addition of the label and the presence of the DMSO, which was unavoidable for making the labeled peptide soluble, may have affected the measured dimerization constant. Thus, we avoid directly comparing the values obtained by the two methods.
as §1
AUC sedimentation equilibrium (SE) experiments were run at multiple concentrations in a 6-Channel Epon charcoal-filled centerpiece. The samples were centrifuged at a range of speeds between 22–48 krpm. Absorbance scans across the radial range were recorded twice at each speed to ensure equilibration. Data were fitted to single, ideal species models or monomer-dimer equilibrium using Sedphat. In total, 95% confidence limits were obtained via Monte-Carlo analysis of the obtained fits. The quality of the fit was evaluated using the χ^2 parameter to observe which model best fit the data. Both fits of the data, where performed in Figures S18–S23 with their corresponding fit information.

Data set [4] has as its system STIL CCD peptide. Nature of the data set: AUC-SE dimer-tetramer model, tetramerization KD. The class given is binding. Particulars: any experimental conditions; KDs could not be measured. How it is done: as §2
Analytical ultracentrifugation (AUC) experiments were carried out using a Beckman Optima XL-A or XL-I analytical ultracentrifuge. Measurements were performed at 20 °C unless otherwise stated, using an An-50 or An-60 rotor, in Sodium Phosphate Buffer pH 6.8 (25 mM Na2PO4 with addition of 137 mM NaCl, pH measured using Jenway (TM) 3510 benchtop and adjusted using 1M HCl and 1M NaOH solutions). The partial specific volume ( υ¯ ) for each peptide were calculated in Sedfit using values from Cohn and Edsall. The buffer densities and viscosities were calculated using UltraScan III [54]. […]

Data set [5] is classed as physicochemical. The settings on record: for Tm: CD 222 nm, Boltzmann fit. The text has this:
(§3) Next, we used circular dichroism (CD) spectroscopy to probe the secondary structures of these WT CCD peptide assemblies. […] The spectra all had minima at 208 and 222 nm indicative of largely α-helical structures. From the high-concentration spectra we estimated ≈47% helix. To compare how the stabilities of these helical assemblies changed with concentration, we followed the changes in MRE222 with temperature over the same concentration range (Figure 2D, Table S1). Sigmoidal curves indicative of cooperative unfolding were apparent at all concentrations, indicating a cooperatively folded, oligomeric species. […] The temperature-dependent CD measurements were performed to determine the oligomerization-dependent thermal stability of the CCD. […] CD spectra of the peptides were recorded using a J-810 spectropolarimeter (Jasco) in a 0.1 cm and 1 cm quartz cuvette for far-UV CD spectroscopy, in a spectral range of 190 nm to 260 nm. The buffer used in the CD measurements was 25 mM sodium phosphate buffer pH = 6.8 with ionic strength of 154 mM (adjected by NaCl). The thermal melting of all STIL CCD peptides were measured as described. The graphs were fitted to Boltzmann equation in order to generate the Tm. Normalization to mean residue ellipticity was performed. The 100% helicity was calculated (with normalization to the length of the peptide and the condition of the measurement) as MRE × 10^−3 of −38 (Deg × cm^2 × dmol^−1 × res^−1).

A short description of data set [6]: CD spectroscopy, helicity. The format is physicochemical. Particulars: CD at 50 µM, 5 °C, 25 mM sodium phosphate pH 6.8, 154 mM NaCl.
Excerpt: as §3

The target of another data set is STIL CCD_(718–749) L736E. Description: crystal structure; L736E crystallized at 0.9 mM peptide, 50 mM Tris pH 8.0, 10% v/v MPD, 4 °C; 1.67 Å.
The subject of data set [7] is Stil−/− mouse embryonic fibroblasts. The settings on record: full-length STIL expressed in Stil−/− mouse embryonic fibroblasts; ref [14]; cited from earlier work. The text has this: Presumably, this is due to the disruption of the hydrophobic CC interactions upon mutation from the hydrophobic Leu to the charged Glu. […] Other ...

Positions count from the first letter of the chain named. Names may count otherwise. Read-outs that look alike come from different tables or passages of the source.

Chain of PLK4 884-970 (Homo sapiens) (O00444 884-970): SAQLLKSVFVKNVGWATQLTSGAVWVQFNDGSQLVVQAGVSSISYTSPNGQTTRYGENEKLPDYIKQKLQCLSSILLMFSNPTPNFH

As for STIL CCD (from UniProt Q15468), the Kd – broadly, the constant that tells how readily two partners part at equilibrium – in data set [1] is 280 nM.
With “L SPDLYRF LTEQDRQ LRLLQAQ IQRLLEA QSL-NH2 [STIL CCD718–749 A722L, STIL CCD peptide with A722L mutation]”, the “Oligomeric State (at 10 µM)” value with STIL CCD peptide [2] (10 µM) is “Tetramer”. In addition, the sw was found to be 1.384 S with STIL CCD peptide [2] (10 µM) and 1.483 S in the data set with STIL CCD peptide [2] (100 µM). The “mw (solution mass from c(s) fit)” value in the data set on STIL CCD peptide [2] (10 µM) came to 15133 Da; in the data set with STIL CCD peptide [2] (100 µM), 15385 Da. Moreover, the f/f0 in the data set on STIL CCD peptide [2] (10 µM) came to 1.458; in the data set with STIL CCD peptide [2] (100 µM), 1.403. In addition, the “sw(20,w)” value was determined as 1.428 S in the data set on STIL CCD peptide [2] (10 µM) and 1.514 S in the data set on STIL CCD peptide [2] (100 µM). Further, the “oligomeric state (average number of monomers in the oligomer)” value in the data set on STIL CCD peptide [2] (10 µM, absorbance) worked out at 3.92 × monomer mass; in the data set on STIL CCD peptide [2] (100 µM, listed as STIL-A722L), 4.0 × monomer mass. The “AUC oligomeric state, SE” value in the data set on STIL CCD peptide [3] (starting concentrations 5, 10, 20 µM, single ideal species fit, 20 °C, 25 mM phosphate pH 6.8) is on record as 3.51 ± 0.02 (5, 10, 20 µM) × monomer mass. The “mass, single species model, SE” value in the data set on STIL CCD peptide [3] (starting concentrations 20, 10 and 5 µM) turned out to be 13541 ± 94 Da. Also, the “dissociation of tetramer (in words)” value in the data set on STIL CCD peptide [4] is reported as “could not be dissociated under any experimental conditions”. Also, the Tm in data set [5] (3 µM, sodium phosphate pH 6.8) came out at 48.0±0.7 °C; in data set [5] (5 µM, sodium phosphate pH 6.8) it was 52.9±0.9 °C; in data set [5] (6 µM, sodium phosphate pH 6.8), 53.6±0.6 °C; in data set [5] (10 µM, sodium phosphate pH 6.8) it was 59.1±0.8 °C; in data set [5] (15 µM, sodium phosphate pH 6.8), 63±1 °C; in data set [5] (20 µM, sodium phosphate pH 6.8), 68±2 °C. Besides, the Tm in data set [5] (50 µM, 25 mM sodium phosphate pH 6.8, 154 mM NaCl) is more than 70 °C; in data set [5] (50 µM, 25 mM sodium phosphate pH 6.8, 154 mM NaCl, listed as A722L), “over 70 °C”. The “thermal denaturation (in words)” value in data set [5] (50 µM, CD, 25 mM sodium phosphate pH 6.8, 154 mM NaCl) was “partially denatured”. Also, in data set [5] (pH 6.8), the “concentration dependence of Tm / thermal stability (in words)” value is “the thermal stability of A722L increased with peptide concentration”. Also, the MRE222 nm in data set [6] is given as −24.9 kdeg cm^2 dmol^−1 res^−1. In data set [6] (from MRE222 (100% = −38)), the “% Helicity” value turned out to be 66%.
Consider STIL CCD_(718–749) L736E (peptide), for which the stoichiometry N (in general, the number of molecules, sites or subunits per partner or assembly) in the data set with STIL CCD_(718–749) L736E stood at 2.

B1: full-length L736E mutant: full-length STIL protein with L736E mutation (protein, UniProt Q15468 1-1287, looked up, variant L736E)
chain: MEPIYPFARPQMNTRFPSSRMVPFHFPPSKCALWNPTPTGDFIYLHLSYYRNPKLVVTEKTIRLAYRHAKQNKKNSSCFLLGSLTADEDEEGVTLTVDRFDPGREVPECLEITPTASLPGDFLIPCKVHTQELCSREMIVHSVDDFSSALKALQCHICSKDSLDCGKLLSLRVHITSRESLDSVEFDLHWAAVTLANNFKCTPVKPIPIIPTALARNLSSNLNISQVQGTYKYGYLTMDETRKLLLLLESDPKVYSLPLVGIWLSGITHIYSPQVWACCLRYIFNSSVQERVFSESGNFIIVLYSMTHKEPEFYECFPCDGKIPDFRFQLLTSKETLHLFKNVEPPDKNPIRCELSAESQNAETEFFSKASKNFSIKRSSQKLSSGKMPIHDHDSGVEDEDFSPRPIPSPHPVSQKISKIQPSVPELSLVLDGNFIESNPLPTPLEMVNNENPPLINHLEHLKPLQPQLYDEKHSPEVEAGEPSLRGIPNQLNQDKPALLRHCKVRQPPAYKKGNPHTRNSIKPSSHNGPSHDIFEKLQTVSAGNVQNEEYPIRPSTLNSRQSSLAPQSQPHDFVFSPHNSGRPMELQIPTPPLPSYCSTNVCRCCQHHSHIQYSPLNSWQGANTVGSIQDVQSEALQKHSLFHPSGCPALYCNAFCSSSSPIALRPQGDMGSCSPHSNIEPSPVARPPSHMDLCNPQPCTVCMHTPKTESDNGMMGLSPDAYRFLTEQDRQLRLEQAQIQRLLEAQSLMPCSPKTTAVEDTVQAGRQMELVSVEAQSSPGLHMRKGVSIAVSTGASLFWNAAGEDQEPDSQMKQDDTKISSEDMNFSVDINNEVTSLPGSASSLKAVDIPSFEESNIAVEEEFNQPLSVSNSSLVVRKEPDVPVFFPSGQLAESVSMCLQTGPTGGASNNSETSEEPKIEHVMQPLLHQPSDNQKIYQDLLGQVNHLLNSSSKETEQPSTKAVIISHECTRTQNVYHTKKKTHHSRLVDKDCVLNATLKQLRSLGVKIDSPTKVKKNAHNVDHASVLACISPEAVISGLNCMSFANVGMSGLSPNGVDLSMEANAIALKYLNENQLSQLSVTRSNQNNCDPFSLLHINTDRSTVGLSLISPNNMSFATKKYMKRYGLLQSSDNSEDEEEPPDNADSKSEYLLNQNLRSIPEQLGGQKEPSKNDHEIINCSNCESVGTNADTPVLRNITNEVLQTKAKQQLTEKPAFLVKNLKPSPAVNLRTGKAEFTQHPEKENEGDITIFPESLQPSETLKQMNSMNSVGTFLDVKRLRQLPKLF
modifications: full-length
notes: full-length STIL protein with L736E mutation
For the molecule B1, in data set [7], the “formation of centrosomes and cilia (in words)” value is “completely disrupts the formation of centrosomes and cilia”.

B2: WT STIL: full-length wild-type STIL protein (protein, UniProt Q15468 1-1287, looked up)
chain: B1 chain with E736L
modifications: full-length
notes: full-length wild-type STIL protein
On to B2, for which the “formation of centrosomes and cilia (in words)” value in data set [7] is “rescues this phenotype”.

The record behind these values is PMC10572602, “Molecular Mechanism of STIL Coiled-Coil Domain Oligomerization” (International Journal of Molecular Sciences, 2023).
